From patent publication US20240226233A1, “COMPOSITION COMPRISING ZAG-DERIVED PEPTIDE FOR IMPROVING SCARS AND KELOIDS” (L&C BIO CO., LTD., priority 2021, published 2024)

What was measured:
[1] = tested on: human dermal fibroblasts (HDFs); assay: CCK-8 assay, cell proliferation of HDFs; format: cell-based; conditions: HDF, 10 μg/mL, compared to untreated negative control / other candidates
Protocol: (§1) A CCK-8 assay was performed to select amino acid sequences corresponding to the core active region of ZAG, which has an inhibitory effect on the formation of scars, among the 18 peptide candidates. Human dermal fibroblasts (HDFs) and keloid fibroblasts (KFs) were treated with the ZAG protein-derived peptide candidates (Z1 to Z18) and the ZAG protein (ZAG) at a concentration of 10 μg/mL, and cell proliferation was then confirmed using a CCK-8 assay. A group treated with the ZAG protein alone was used as a positive control, and an untreated group was used as a negative control.
(§2) Specifically, HDFs and KFs were treated with the ZAG protein (ZAG), Z16, and the ZAG protein-derived peptide candidates (Z15mer_1 to Z15mer_4) additionally synthesized in Preparation Example 2 at a concentration of 10 μg/mL, and cell proliferation was then confirmed through a CCK-8 assay.

keloid fibroblasts (KFs) = assay: CCK-8 assay, cell proliferation of KFs; format: cell-based; conditions: KF, 10 μg/mL, compared to untreated negative control / other candidates
Protocol: as §1, §2

HDFs = assay: Scratch assay, cell migration of HDFs in TGF-β scar environment; format: cell-based, human; conditions: HDF scratched, 10 ng/mL TGF-β, 24 hours, compared to TGF-β-treated group
Protocol: (§3) HDFs and KFs were seeded in a 6-well plate. After 24 hours, the center of each well was scratched to create a wound. Thereafter, the HDF test group was treated with 10 ng/mL of TGF-β, which is overexpressed during scar formation, to create a scar environment, and then treated with the selected Z16 peptide. The migration of cells in the affected area was confirmed 24 hours later.
(§4) HDFs and KFs were seeded in a 6-well plate. After 24 hours, the center of each well was scratched to create a wound generation model. Thereafter, the HDF test group was treated with 10 ng/mL of TGF-β, which is overexpressed during scar formation, to create a scarring environment, and then treated with Z15mer_1 to Z15mer_4 additionally synthesized in Preparation Example 2. The migration of cells in the affected area was confirmed 24 hours later.

KFs = assay: Scratch assay, cell migration of KFs; format: cell-based; conditions: KF scratched, general medium, 24 hours
Protocol: as §3, §4

[2] = tested on: collagen I, III, TGF-β, pSMAD2/3; assay: RNA (PCR) and protein (Western blotting) expression in scratched, TGF-β-treated HDFs; format: cell-based, human; conditions: HDF, TGF-β + peptide vs TGF-β-treated group; for mRNA expression of collagen I, III, and TGF-β: PCR; for protein expression of collagen I, III, TGF-β, and pSMAD2/3: Western blotting
Protocol: as §3
(§5) Cells were treated with Z16 under the same conditions as in Example 2-1, and the expression of RNA and proteins involved in the formation of hypertrophic scars or keloids was analyzed. The expression was confirmed through PCR and Western blotting.
as §4
(§6) Cells were treated with Z16 under the same conditions as in Example 3-1, and the expression of RNA and proteins involved in the formation of hypertrophic scars or keloids was analyzed. The expression was confirmed through PCR and Western blotting.

[3] = tested on: collagen I, III, TGF-β, pSMAD2/3; assay: RNA (PCR) and protein (Western blotting) expression in scratched KFs; format: cell-based; conditions: KF, vs untreated negative control; for mRNA expression of collagen I, III, and TGF-β: PCR; for protein expression of collagen I, III, TGF-β, and pSMAD2/3: Western blotting
Protocol: as §3, §5, §4, §6

[4] = tested on: hypertrophic scars or keloids; assay: Overall inhibitory effect on formation of hypertrophic scars or keloids (HDF/KF tests); format: cell-based; conditions: compared with ZAG16, scratch assay HDF and KF
Protocol: as §1, §4

Molecule: APGEKKKLKCLAYDF (ZAG protein-derived peptide) [Peptide Z15mer_1]
- cell proliferation (CCK-8) [1]: lowest proliferation
- cell proliferation (CCK-8) (keloid fibroblasts (KFs)): lowest proliferation
- migration of cells in the affected area (HDFs): greatest inhibition of cell migration
- migration of cells in the affected area (KFs): greatest inhibition of cell migration
- mRNA expression of collagen I, III, and TGF-β [2]: decreased
- protein expression of collagen I, III, TGF-β, and pSMAD2/3 [2]: decreased
- mRNA expression of collagen I, III, and TGF-β [3]: decreased
- protein expression of collagen I, III, TGF-β, and pSMAD2/3 [3]: decreased
- inhibition of the formation of hypertrophic scars and keloids [4]: more effectively than ZAG16

Molecule: APGEKKKLKCLAYDFYPGKIDVHWTRAGEV (ZAG protein-derived peptide) [Peptide Z16]
- cell proliferation (CCK-8) [1]: lowest cell proliferation
- cell proliferation (CCK-8) (keloid fibroblasts (KFs)): lowest cell proliferation
- migration of cells in the affected area (HDFs): inhibited
- migration of cells in the affected area (KFs): inhibited
- mRNA expression of collagen I, III, and TGF-β [2]: decreased
- protein expression of collagen I, III, TGF-β, and pSMAD2/3 [2]: decreased
- mRNA expression of collagen I, III, and TGF-β [3]: decreased
- protein expression of collagen I, III, TGF-β, and pSMAD2/3 [3]: decreased

B1: zinc-alpha-2-glycoprotein (ZAG) protein (protein, listed as Homo sapiens)
chain: MVRMVPVLLSLLLLLGPAVPQENQDGRYSLTYIYTGLSKHVEDVPAFQALGSLNDLQFFRYNSKDRKSQPMGLWRQVEGMEDWKQDSQLQKAREDIFMETLKDIVEYYNDSNGSHVLQGRFGCEIENNRSSGAFWKYYYDGKDYIEFNKEIPAWVPFDPAAQITKQKWEAEPVYVQRAKAYLEEECPATLRKYLKYSKNILDRQDPPSVVVTSHQAPGEKKKLKCLAYDFYPGKIDVHWTRAGEVQEPELRGDVLHNGNGTYQSWVVVAVPPQDTAPYSCHVQHSSLAQPLVVPWEAS
- cell proliferation (CCK-8) [1]: decreased cell proliferation
- cell proliferation (CCK-8) (keloid fibroblasts (KFs)): decreased cell proliferation
